Data published in patent publication US3954875A, “Benzophenone herbicides” (Rohm and Haas Company, priority 1973, dated 1976).

Legend:
Dicots = test: Preemergence weed control in flats (Example 14, Table II), dicot weeds; format: in vivo; settings: about 2 weeks after application
Method: (§1) Using the procedure described below, the benzophenones of Examples 1 and 2 were evaluated for control of the following weeds:
Coffeeweed (Sesbania spp.)
velvetleaf (Abutilon theophrasti)
(§2) The following test procedure is employed. Seeds of selected weeds are planted in soil in flats, and the flats are treated with the test compound immediately after the planting. The compound to be evaluated is dissolved in acetone, diluted with water, and sprayed over the flats using a carrier volume equivalent to 50 gallons per acre at the rate of application (pounds per acre, lb/A.) specified in the tables. About 2 weeks after the application of the test compound, the state of growth of the plants is observed and the phytotoxic effect of the compound is evaluated. Table II gives the average percent control achieved by the test compounds in terms of the percent of the plants which are killed by the compounds.

Monocots = test: Preemergence weed control in flats (Example 14, Table II), monocot weeds; format: in vivo; settings: about 2 weeks after application
Method: as §1
Barnyardgrass (Echinochloa crusgalli)
Crabgrass (Digitaria spp.)
Foxtail (Setaria italica)
Johnsongrass (Sorghum halepense)
Quackgrass (Agropyron repens)
Yellow millet (Panicum miliaceaum)
Wild oats (Sesbania spp.)
as §2

SMILES	% Control, Dicots (average percent of the plants killed) (Dicots; 2 lb./A.) [%]	% Control, Dicots (average percent of the plants killed) (Dicots; 4 lb./A.) [%]	% Control, Dicots (average percent of the plants killed) (Dicots; 8 lb./A.) [%]	% Control, Monocots (average percent of the plants killed) (Monocots; 2 lb./A.) [%]	% Control, Monocots (average percent of the plants killed) (Monocots; 4 lb./A.) [%]	% Control, Monocots (average percent of the plants killed) (Monocots; 8 lb./A.) [%]
COc1ccc(C(=O)c2cccc(C(F)(F)F)c2)cc1C [Example 1, 4-methoxy-3-methyl-3'-trifluoromethylbenzophenone]	65	70	85	91	97	99
COc1ccc(C(=O)c2cccc(C)c2)cc1C [Example 2, 4-methoxy-3,3'-dimethylbenzophenone]	60	55	65	88	93	100
